Patent EP0294695A2, “New polyoxygenated labdane derivatives, a process for their preparation, and their use as medicaments” (HOECHST AKTIENGESELLSCHAFT, priority 1987, dated 1988)

Experiment: reduction of intraocular pressure
Type: in vivo
Settings: 2% strength solution of the test compound; for Duration: duration of the decrease in intraocular pressure
Description: The results of investigations into the reduction of intraocular pressure by some typical compounds of the formula I, according to the invention, are listed in Table 2. The results are expressed as the percentage decrease in the intraocular pressure when a 2% strength solution of the test compound is used.

Structure (SMILES)	Decrease in intraocular pressure(%)	Duration
C=C[C@@]1(C)CC(=O)[C@]2(O)[C@@]3(C)[C@@H](OC(=O)Nc4ccccc4)CCC(C)(C)[C@@H]3[C@H](O)[C@H](OC(=O)Nc3ccccc3)[C@@]2(C)O1 [Compound 1]	18%	5 h
C=C[C@@]1(C)CC(=O)[C@]2(O)[C@@]3(C)[C@@H](O)CCC(C)(C)[C@@H]3[C@H](O)[C@H](OC(=O)NC)[C@@]2(C)O1 [Compound 2, 8,13-Epoxy-7β-methylaminocarbonyloxy-1α,6β,9α-trihydroxylabd-14-en-11-one]	23%	5 h
C=C[C@@]1(C)CC(=O)[C@]2(O)[C@@]3(C)[C@@H](O)CCC(C)(C)[C@@H]3[C@H](O)[C@H](OC(=O)NC(C)C)[C@@]2(C)O1 [Compound 3, 7β-isopropylaminocarbonyloxy-8,13-epoxy-1α,6β,9α-trihydroxylabd-14-en-11-one]	34%	6 h
C=C[C@@]1(C)CC(=O)[C@]2(O)[C@@]3(C)[C@@H](O)CCC(C)(C)[C@@H]3[C@H](O)[C@H](OC(=O)NC(C)(C)C)[C@@]2(C)O1 [Compound 4, 7β-t-Butylaminocarbonyloxy-8,13-epoxy-1α,6β9α-trihydroxylabd-14-en-11-one]	21%	6 h
